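Briefly, cells in 96-well plates were exposed to five compound concentrations for 48 h, and endpoints were estimated by linear interpolation. GI50 is the concentration that inhibits growth by half.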 Calls of active or inactive are those of the source. Rule as the data show it: active = GI50 up to about 1.1 µM and inactive = higher.
Assays:
Assay in all cases: NCI tumour cell line growth inhibition, 48 h
[1] = system: DMS-114
[2] = system: HL-60
[3] = system: HOP-18
[4] = system: HOP-62
[5] = system: KM-20L2
[6] = system: NCI-H460
[7] = system: NCI/ADR-RES
[8] = system: SN12C
[9] = system: SNB-78
[10] = system: SW-620
[11] = system: XF498
[12] = system: M14
[13] = system: Hs-578T
[14] = system: MDA-MB-231
[15] = system: MDA-MB-435
[16] = system: MDA-N
[17] = system: PC-3
[18] = system: SR
[19] = system: T47D
[20] = system: BT-549

Structure (SMILES)	GI50 [1]	GI50 [2]	GI50 [3]	GI50 [4]	GI50 [5]	GI50 [6]	GI50 [7]	GI50 [8]	GI50 [9]	GI50 [10]	GI50 [11]	GI50 [12]	GI50 [13]	GI50 [14]	GI50 [15]	GI50 [16]	GI50 [17]	GI50 [18]	GI50 [19]	GI50 [20]
CCCNC1=C(C)C(=O)C2=C(C1=O)[C@H](COC(N)=O)[C@]1(OC)[C@@H]3N[C@@H]3CN21	4 µM (inactive)	0.394 µM (active)	13.4 µM (inactive)	0.303 µM (active)	8.75 µM (inactive)	0.0661 µM (active)	> 100 µM (inactive)	2.42 µM (inactive)	26.9 µM (inactive)	3.73 µM (inactive)	4.78 µM (inactive)	–	–	–	–	–	–	–	–	–
CC(=O)OCC1=C(C(=O)O)C(c2ccc3c(c2)OCO3)c2cc3c(cc2O1)OCO3 (configuration not stated)	> 100 µM (inactive)	> 100 µM (inactive)	> 100 µM (inactive)	> 100 µM (inactive)	> 100 µM (inactive)	> 100 µM (inactive)	–	> 100 µM (inactive)	> 100 µM (inactive)	> 100 µM (inactive)	> 100 µM (inactive)	> 100 µM (inactive)	–	–	–	–	–	–	–	–
Cc1ccc(C(C)(C)C[P+](C)(c2ccccc2)c2ccccc2)cc1	5.25 µM (inactive)	1.75 µM (inactive)	6.43 µM (inactive)	18.4 µM (inactive)	6.1 µM (inactive)	14 µM (inactive)	> 100 µM (inactive)	20.4 µM (inactive)	14.7 µM (inactive)	17.4 µM (inactive)	2.88 µM (inactive)	–	–	–	–	–	–	–	–	–
COc1nc2ccc(COc3ccc(C(=O)NC(CCC(=O)O)C(=O)O)cc3)cc2nc1OC (configuration not stated)	–	> 10 µM (inactive)	–	> 10 µM (inactive)	–	> 10 µM (inactive)	–	> 10 µM (inactive)	–	> 10 µM (inactive)	–	> 10 µM (inactive)	> 10 µM (inactive)	> 10 µM (inactive)	> 10 µM (inactive)	> 10 µM (inactive)	> 10 µM (inactive)	> 10 µM (inactive)	> 10 µM (inactive)	–
O=c1c(C(c2ccc(Cl)cc2)c2c(O)c3ccccc3n(-c3ccccc3)c2=O)c(O)c2ccccc2n1-c1ccccc1	28.7 µM (inactive)	–	> 100 µM (inactive)	28 µM (inactive)	37.6 µM (inactive)	–	–	19.1 µM (inactive)	48.8 µM (inactive)	34 µM (inactive)	18.8 µM (inactive)	–	–	–	–	–	–	7.43 µM (inactive)	–	–
Cc1ccc(C2C(C(=O)C(C)(C)C)N2S(=O)(=O)c2ccc(C)cc2)cc1 (configuration not stated)	–	–	–	33.5 µM (inactive)	–	–	23.4 µM (inactive)	19.8 µM (inactive)	–	26.8 µM (inactive)	–	17.8 µM (inactive)	28.7 µM (inactive)	19.8 µM (inactive)	20.9 µM (inactive)	19.1 µM (inactive)	29.7 µM (inactive)	–	21 µM (inactive)	17.7 µM (inactive)
N#Cc1c(NC(=S)NC(=O)c2ccccc2)nc2c(c1-c1ccccc1)CCC2	–	> 100 µM (inactive)	–	> 100 µM (inactive)	–	> 100 µM (inactive)	> 100 µM (inactive)	78.2 µM (inactive)	–	> 100 µM (inactive)	–	> 100 µM (inactive)	39.8 µM (inactive)	43.9 µM (inactive)	> 100 µM (inactive)	> 100 µM (inactive)	> 100 µM (inactive)	> 100 µM (inactive)	25.5 µM (inactive)	> 100 µM (inactive)
Cc1cc(C)c2c(O)cc(-c3ccc(F)cc3)nc2n1	–	–	–	> 100 µM (inactive)	–	–	47.6 µM (inactive)	50.7 µM (inactive)	–	34.4 µM (inactive)	–	45.7 µM (inactive)	69 µM (inactive)	63 µM (inactive)	–	–	–	23.3 µM (inactive)	37.8 µM (inactive)	65.8 µM (inactive)

— ChEMBL document CHEMBL1201862, “PubChem BioAssay data set” (2004)
